# In PMC7162861, “Synthesis, cytotoxicity, pharmacokinetic profile, binding with DNA and BSA of new imidazo[1,2-a]pyrazine-benzo[d]imidazol-5-yl hybrids” (Scientific Reports, 2020):
# What was measured:
# [1] = tested on: A498; experiment: NCI cytotoxicity screen, Renal Cancer panel; assay type: cell-based; conditions: Homo sapiens, single dose 10 µM, negative = lethal, read-out: Percent growth inhibition
# Protocol: (§1) Cytotoxicity was performed at National Cancer Institute (NCI), Bethesda, USA as per their protocols.
# [2] = tested on: SN12C; experiment: NCI cytotoxicity screen, Renal Cancer panel; assay type: cell-based; conditions: Homo sapiens, single dose 10 µM, negative = lethal, read-out: Percent growth inhibition
# Protocol: as §1
# [3] = tested on: ACHN; experiment: NCI cytotoxicity screen, Renal Cancer panel; assay type: cell-based; conditions: Homo sapiens, single dose 10 µM, negative = lethal, read-out: Percent growth inhibition
# Protocol: as §1
# [4] = tested on: UO-31; experiment: NCI cytotoxicity screen, Renal Cancer panel; assay type: cell-based; conditions: Homo sapiens, single dose 10 µM, negative = lethal, read-out: Percent growth inhibition
# Protocol: as §1
# [5] = tested on: RXF 393; experiment: NCI cytotoxicity screen, Renal Cancer panel; assay type: cell-based; conditions: Homo sapiens, single dose 10 µM, negative = lethal, read-out: Percent growth inhibition
# Protocol: as §1
# [6] = tested on: UACC-257; experiment: NCI cytotoxicity screen, Melanoma panel; assay type: cell-based; conditions: Homo sapiens, single dose 10 µM, negative = lethal, read-out: Percent growth inhibition
# Protocol: as §1
# [7] = tested on: SK-MEL-28; experiment: NCI cytotoxicity screen, Melanoma panel; assay type: cell-based; conditions: Homo sapiens, single dose 10 µM, negative = lethal, read-out: Percent growth inhibition
# Protocol: as §1
# [8] = tested on: SK-MEL-2; experiment: NCI cytotoxicity screen, Melanoma panel; assay type: cell-based; conditions: Homo sapiens, single dose 10 µM, negative = lethal, read-out: Percent growth inhibition
# Protocol: as §1
# [9] = tested on: MALME-3M; experiment: NCI cytotoxicity screen, Melanoma panel; assay type: cell-based; conditions: Homo sapiens; MALME-3M; single dose 10 µM; negative = lethal; read-out: Percent growth inhibition
# Protocol: as §1
# [10] = tested on: MDA-MB-435; experiment: NCI cytotoxicity screen, Melanoma panel; assay type: cell-based; conditions: Homo sapiens, MDA-MB-435, read-out: Percent growth inhibition
# Protocol: as §1
# [11] = tested on: SK-MEL-5; experiment: NCI cytotoxicity screen, Melanoma panel; assay type: cell-based; conditions: Homo sapiens, single dose 10 µM, negative = lethal, read-out: Percent growth inhibition
# Protocol: as §1
# [12] = tested on: M14; experiment: NCI cytotoxicity screen, Melanoma panel; assay type: cell-based, human; conditions: Homo sapiens, single dose 10 µM, negative = lethal, read-out: Percent growth inhibition
# Protocol: as §1
# [13] = tested on: LOX IMVI; experiment: NCI cytotoxicity screen, Melanoma panel; assay type: cell-based, human; conditions: Homo sapiens, single dose 10 µM, negative = lethal, read-out: Percent growth inhibition
# Protocol: as §1
# [14] = tested on: OVCAR-3; experiment: NCI cytotoxicity screen, Ovarian Cancer panel; assay type: cell-based, human; conditions: Homo sapiens; OVCAR-3; single dose 10 µM; negative = lethal; read-out: Percent growth inhibition
# Protocol: as §1
# [15] = tested on: 786-0; experiment: NCI cytotoxicity screen, Renal Cancer panel; assay type: cell-based, human; conditions: Homo sapiens, single dose 10 µM, negative = lethal, read-out: Percent growth inhibition
# Protocol: as §1
# [16] = tested on: TK-10; experiment: NCI cytotoxicity screen, Renal Cancer panel; assay type: cell-based, human; conditions: Homo sapiens, single dose 10 µM, negative = lethal, read-out: Percent growth inhibition
# Protocol: as §1
# [17] = tested on: NCI-H23; experiment: NCI cytotoxicity screen, Non-Small Cell Lung Cancer panel; assay type: cell-based, human; conditions: Homo sapiens, single dose 10 µM, negative = lethal, read-out: Percent growth inhibition
# Protocol: as §1
# [18] = tested on: NCI-522; experiment: as above; assay type: cell-based, human; conditions: Homo sapiens; NCI-522; single dose 10 µM; negative = lethal; read-out: Percent growth inhibition
# Protocol: as §1
# [19] = tested on: NCI-H322M; experiment: as above; assay type: cell-based, human; conditions: Homo sapiens, single dose 10 µM, negative = lethal, read-out: Percent growth inhibition
# Protocol: as §1
# [20] = tested on: NCI-H226; experiment: as above; assay type: cell-based, human; conditions: Homo sapiens, single dose 10 µM, negative = lethal, read-out: Percent growth inhibition
# Protocol: as §1
# [21] = tested on: SW-620; experiment: NCI cytotoxicity screen, Colon Cancer panel; assay type: cell-based, human; conditions: Homo sapiens, single dose 10 µM, negative = lethal, read-out: Percent growth inhibition
# Protocol: as §1
# [22] = tested on: HCC-2998; experiment: NCI cytotoxicity screen, Colon Cancer panel; assay type: cell-based, human; conditions: Homo sapiens; HCC-2998; single dose 10 µM; negative = lethal; read-out: Percent growth inhibition
# Protocol: as §1
# [23] = tested on: KM12; experiment: NCI cytotoxicity screen, Colon Cancer panel; assay type: cell-based, human; conditions: Homo sapiens, single dose 10 µM, negative = lethal, read-out: Percent growth inhibition
# Protocol: as §1
# [24] = tested on: OVCAR-8; experiment: NCI cytotoxicity screen, Ovarian Cancer panel; assay type: cell-based; conditions: Homo sapiens, single dose 10 µM, negative = lethal, read-out: Percent growth inhibition
# Protocol: as §1
# [25] = tested on: NCI/ADR-RES; experiment: NCI cytotoxicity screen, Ovarian Cancer panel; assay type: cell-based; conditions: Homo sapiens, single dose 10 µM, negative = lethal, read-out: Percent growth inhibition
# Protocol: as §1
# [26] = tested on: OVCAR-4; experiment: NCI cytotoxicity screen, Ovarian Cancer panel; assay type: cell-based; conditions: Homo sapiens; OVCAR-4; single dose 10 µM; negative = lethal; read-out: Percent growth inhibition
# Protocol: as §1
# [27] = tested on: OVCAR-5; experiment: NCI cytotoxicity screen, Ovarian Cancer panel; assay type: cell-based; conditions: Homo sapiens, single dose 10 µM, negative = lethal, read-out: Percent growth inhibition
# Protocol: as §1
# [28] = tested on: IGROV1; experiment: NCI cytotoxicity screen, Ovarian Cancer panel; assay type: cell-based; conditions: Homo sapiens, IGROV-1, single dose 10 µM, negative = lethal, read-out: Percent growth inhibition
# Protocol: as §1
# [29] = tested on: SK-OV-3; experiment: NCI cytotoxicity screen, Ovarian Cancer panel; assay type: cell-based; conditions: Homo sapiens, single dose 10 µM, negative = lethal, read-out: Percent growth inhibition
# Protocol: as §1
structure (smiles),measurement,setting,value
"Brc1cn2ccnc2c(-c2ccc3c(c2)ncn3C2CCCCC2)n1 [Compound 8, 6-bromo-8-(1-cyclohexyl-1H-benzo[d]imidazol-5-yl)imidazo[1,2-a]pyrazine]",inhibition at 10 µM,[1],3.51%
same,inhibition at 10 µM,[2],< 1%
same,inhibition at 10 µM,[3],< 1%
same,inhibition at 10 µM,[4],40.1%
same,inhibition at 10 µM,[5],< 1%
same,inhibition at 10 µM,[6],< 1%
same,inhibition at 10 µM,[7],< 1%
same,inhibition at 10 µM,[8],0.53%
same,inhibition at 10 µM,[9],< 1%
same,inhibition at 10 µM,[10],< 1%
same,inhibition at 10 µM,[11],8.35%
same,inhibition at 10 µM,[12],< 1%
same,inhibition at 10 µM,[13],9.14%
same,inhibition at 10 µM,[14],< 1%
same,inhibition at 10 µM,[15],1.3%
same,inhibition at 10 µM,[16],< 1%
same,inhibition at 10 µM,[17],8.76%
same,inhibition at 10 µM,[18],15.2%
same,inhibition at 10 µM,[19],10.9%
same,inhibition at 10 µM,[20],3.73%
same,inhibition at 10 µM,[21],< 1%
same,inhibition at 10 µM,[22],3.13%
same,inhibition at 10 µM,[23],< 1%
same,inhibition at 10 µM,[24],3.55%
same,inhibition at 10 µM,[25],5.47%
same,inhibition at 10 µM,[26],9.25%
same,inhibition at 10 µM,[27],< 1%
same,inhibition at 10 µM,[28],8.45%
same,inhibition at 10 µM,[29],6.59%
